Results from patent publication US7235559B1, “Therapeutic quinazoline derivatives” (AstraZeneca AB, priority 1999, dated 2007).

Assays:
aurora2 kinase = molecular target: T1, aurora2 kinase (Homo sapiens, UniProt O14965); experiment: In Vitro aurora2 kinase inhibition test; format: biochemical
T1 construct: made in house; host or cells: Spodoptera frugiperda Sf21 insect cells (baculovirus)
T1 sequence (O14965 1-403): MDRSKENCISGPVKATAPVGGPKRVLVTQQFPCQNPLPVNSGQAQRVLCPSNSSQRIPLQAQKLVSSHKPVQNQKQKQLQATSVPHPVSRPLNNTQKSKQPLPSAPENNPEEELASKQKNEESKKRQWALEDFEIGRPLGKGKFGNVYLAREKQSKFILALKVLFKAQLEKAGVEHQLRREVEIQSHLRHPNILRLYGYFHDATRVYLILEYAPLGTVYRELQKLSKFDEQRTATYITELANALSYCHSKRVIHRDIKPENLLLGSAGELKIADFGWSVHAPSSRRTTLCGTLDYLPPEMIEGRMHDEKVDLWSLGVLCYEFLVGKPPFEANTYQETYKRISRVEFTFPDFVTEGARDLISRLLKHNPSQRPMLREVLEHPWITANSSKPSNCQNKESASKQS

MCF-7 cells [1] = experiment: In Vitro cell proliferation assay, Assay 1 (CyQUANT cell density); format: cell-based; conditions: Homo sapiens, MCF7, 72 h, MCF-7, 3 days in presence of compound, read-out: concentration giving 50% inhibition of cell proliferation
Description: (§1) These and other assays can be used to determine the ability of a test compound to inhibit the growth of adherent mammalian cell lines, for example the human tumour cell line MCF7.
MCF-7 (ATCC HTB-22) or other adherent cells were typically seeded at 1×10^3 cells per well (excluding the peripheral wells) in DMEM (Sigma Aldrich) without phenol red, plus 10% foetal calf serum, 1% L-glutamine and 1% penicillin/streptomycin in 96 well tissue culture treated clear plates (Costar). The following day (day 1), the media was removed from a no treatment control plate and the plate stored at −80° C. The remaining plates were dosed with compound (diluted from 10 mM stock in DMSO using DMEM (without phenol red, 10% FCS, 1% L-glutamine, 1% penicillin/streptomycin). Untreated control wells were included on each plate. After 3 days in the presence/absence of compound (day 4) the media was removed and the plates stored at −80° C. Twenty four hours later the plates were thawed at room temperature and cell density determined using the CyQUANT cell proliferation assay kit (c-7026/c-7027 Molecular Probes Inc.) according to manufacturers directions. Briefly, 200 μl of cell lysis/dye mixture (10 μl of 20× cell lysis buffer B, 190 μl of sterile water, 0.25 μl of CYQUANT GR dye) was added to each well and the plates incubated at room temperature for 5 minutes in the dark. […]

MCF-7 cells [2] = experiment: In Vitro cell proliferation assay, Assay 2 (BrdU incorporation); format: cell-based; conditions: Homo sapiens, MCF7; MCF-7, 48 hours with compound, 2 hour BrdU labelling; read-out: concentration giving 50% inhibition of BrdU incorporation
Description: as §1
This assay determines the ability of at test compound to inhibit the incorporation of the thymidine analogue, 5′-bromo-2′-deoxy-uridine (BrdU) into cellular DNA. MCF-7 or other adherent cells were typically seeded at 0.8×10^4 cells per well in DMEM (Sigma Aldrich) without phenol red, plus 10% foetal calf serum, 1% L-glutamine and 1% penicillin/streptomycin (50 μl/well) in 96 well tissue culture treated 96 well plates (Costar) and allowed to adhere overnight. […] The optical density of the wells was then determined at 690 nm wavelength using a Titertek Multiscan plate reader. […]

MCF7 cells = experiment: In Vitro cell cycle analysis assay (FACS); format: cell-based, human; conditions: 10 μM, 24 hours
Protocol: This assay determines the ability of a test compound to arrest cells in specific phases of the cell cycle. Many different mammalian cell lines could be used in this assay and MCF7 cells are included here as an example. MCF-7 cells were seeded at 3×10^5 cells per T25 flask (Costar) in 5 ml DMEM (no phenol red 10% FCS, 1% L-glutamine 1% penicillin/streptomycin). Flasks were then incubated overnight in a humidified 37° C. incubator with 5% CO2. The following day 1 ml of DMEM (no phenol red 10% FCS, 1% L-glutamine 1% penicillin/streptomycin) carrying the appropriate concentration of test compound solubilised in DMSO was added to the flask. A no compound control treatments was also included (0.5% DMSO). The cells were then incubated for a defined time (usually 24 hours) with compound. After this time the media was aspirated from the cells and they were washed with 5 ml of prewarmed (37° C.) sterile PBSA, then detached from the flask by brief incubation with trypsin and followed by resuspension in 10 ml of 1% Bovine Serum Albumin (BSA, Sigma-Aldrich Co.) in sterile PBSA. The samples were then centrifuged at 2200 rpm for 10 min. The supernatant was aspirated and the cell pellet was resuspended in 200 μl of 0.1% (w/v) Tris sodium citrate, 0.0564% (w/v) NaCl, 0.03% (v/v) Nonidet NP40, [pH 7.6]. Propridium Iodide (Sigma Aldrich Co.) was added to 40 μg/ml and RNAase A (Sigma Aldrich Co.) to 100 μg/ml. The cells were then incubated at 37° C. for 30 minutes. The samples were centrifuged at 2200 rpm for 10 min, the supernatant removed and the remaining pellet (nuclei) resuspended in 200 μl of sterile PBSA. […] The samples were then transferred to LPS tubes and DNA content per cell analysed by Fluorescence activated cell sorting (FACS) using a FACScan flow cytometer (Becton Dickinson). Typically 25000 events were counted and recorded using CellQuest v1.1 software (Verity Software). Cell cycle distribution of the population was calculated using Modfit software (Verity Software) and expressed as percentage of cells in G0/G1, S and G2/M phases of the cell cycle. […]

For `COc1cc2ncnc(Nc3cnc(NC(=O)c4ccccc4)nc3)c2cc1OC` [Compound 6], the IC50 (aurora2 kinase) was 7.85 nM, the IC50 (MCF-7 cells [1]) was 1700 nM and the IC50 (MCF-7 cells [2]) was 1920 to 2850 nM. The “% Cells in G1” value (MCF7 cells) was 43.22%, the “% Cells in G2/M” value (MCF7 cells) was 30.38% and the “% Cells in S” value (MCF7 cells) was 18%.
